Experimental data taken from patent US20250186379A1, “METHODS AND AGENTS FOR DECREASING INSULIN RESISTANCE” (Whitehead Institute for Biomedical Research, priority 2021, published 2025).
Entries after “also recorded” stand apart in the source; their conditions may differ.

Legend:
[1] = tested on: IR condensates; assay: Immunofluorescence for IR in human liver tissue from donors; assay type: in vivo; conditions: liver tissue of donors with T2D treated with metformin vs T2D and healthy donors
Description: (§1) Images were then processed using Fiji/ImageJ v2.1.0/153c.
as §1

[2] = tested on: IR puncta; assay: Immunofluorescence for IR in human primary adipocytes; assay type: cell-based; conditions: for IR incorporation into puncta: 3 nM insulin 5 minutes
Method: Primary pre-adipocytes from (ATCC, PCS-210-010) were cultured in Fibroblast Growth Kit-Low Serum (ATCC PCS-201-041), as per manufacturer's instructions. Cells for experiments were dissociated and plated at 18,000 cells/cm2. Two days later pre-adipocytes were differentiated in adipocyte differentiation media (ATCC PCS-500-050), as per manufacturer's instructions. Briefly, cells were washed and medium was replaced with adipocyte differentiation initiation medium. After 48 hours, half the medium was replaced. At day 4, medium was changed to adipocyte differentiation maintenance medium, and replaced every three days. At day 12, cells were rinsed and incubated in DMEM (Thermo Fisher, 11885084) with 0.1 or 3 nM of insulin for 5 days, replacing medium every other day. In the last 24 hours, 12.5 μM metformin was added. On day 17, cells were prepared for the assays by rinsing, and 30 minutes of washing. Afterwards, for imaging, cells were exposed to 3 nM insulin for 5 minutes, rinsed with PBS and fixed in 4% PFA for 15 minutes at room temperature. For pAKT ELISAs cells were exposed to 3 nM insulin for 15 minutes and harvested in cell lysis buffer (Cell Signaling Technology, #9803) with phosphatase inhibitor (Thermo Fisher Scientific, 78442).
For adipocytes, following differentiation, cells were cultured with EMEM for 2 days and with EMEM containing either physiological (0.1 nM) or pathological (3 nM) concentrations of insulin for 2 days. Cells were then cultured with EMEM containing either physiological (0.1 nM) or pathological (3 nM) of insulin or with pathological (3 nM) concentrations of insulin and 12.5 μM of metformin for 1 day. Cells were then washed with EMEM and acutely stimulated with or without 3 nM insulin for 5 minutes prior to cell collection for immunofluorescence or ELISA.
HepG2 cells, human liver spheroids, human primary adipocytes and human tissue liver sections were fixed in 4% PFA (VWR, BT140770-10X10) in PBS (Life Technologies, AM9625) for 10 minutes at room temperature. […]

[3] = tested on: HepG2 cells; assay: Glucose production in HepG2 cells; assay type: cell-based, human
Method: Insulin sensitive and resistant cells were cultured in EMEM for 30 minutes and then cells were treated with 0, 0.1, 1 and 10 nM insulin in glucose production media, containing DMEM (Thermo Fisher Scientific, A1443001), 15 mM HEPES (Gibco, 15630-080), 1 mM pyruvate (Sigma Aldrich, P5280), 20 mM lactate (Sigma Aldrich, L7022-5G) for 4-5 hours. Media was removed and glucose production was measured using Amplex™ Red Glucose/Glucose oxidase assay kit (Thermo Fisher Scientific, A22189) according to the manufacturer's specifications.
To wash out insulin, cells were washed with EMEM (ATCC 30-2003) seven times, including: three quick washes, three 5-minute washes and a long 20 minute-wash in EMEM at 37° C. Cells were washed with glucose-free RPMI (Gibco, 11879-020) then cultured in glucose-free RPMI for 3 hours. […] Cells were then processed for metabolite isolation (see below).
Metabolite isolation from HepG2 cells: cells were washed in ice-cold PBS (Life Technologies, AM9625), 500 μl of cold 80% MeOH (shared by the Metabolite Profiling Core Facility) was added per well of a 6-well plate and the plate was placed at −80° C. for at least 15 minutes. Following the −80 incubation, the plate was scraped on dry ice and the solution was transferred to a 1.5 ml tube and then vortexed for 5 minutes. […]

Molecule: CN(C)C(=N)N=C(N)N [metformin, reference compound]
- IR signal in condensates/puncta of hepatocytes [1]: increased IR signals in condensates that approximated those seen in tissue from healthy donors; also recorded: IR punctate signals similar to those observed in healthy tissues
- IR incorporation into puncta (IR signal) ([2]; insulin-resistant adipocytes, 12.5 μM metformin 1 day, 3 nM insulin 5 min): reversed

Molecule: insulin: insulin (Sigma Aldrich, I9278-5ML) used for acute stimulation and chronic physiological or pathological exposure
- glucose production after insulin stimulation ([3]; cells exposed to pathologic levels (3 nM) of insulin for two days): unchanged
- glucose production ([3]; insulin-sensitive HepG2 cells, acute insulin stimulation (FIGS. 22G-22H)): decreased glucose production
- IR incorporation into puncta ([2]; insulin-resistant adipocytes): less able to promote further IR incorporation into puncta
- IR incorporation into puncta ([2]; insulin-sensitive adipocytes): promoted further IR incorporation into these puncta
